Assay results as given in ChEMBL document CHEMBL4392870, “Isolation and Biological Activity of 8- Epitetrodotoxin and the Structure of a Possible Biosynthetic Shunt Product of Tetrodotoxin, Cep-226A, from the Newt Cynops ensicauda popei” (J Nat Prod, 2019).

Experiments:
[1] = Inhibition of NaV in mouse Neuro2a cells assessed as suppression of ouabain/veratridine-induced reduction in cell viability measured after 24 hrs by WST8 assay; assay type: cell-based
[2] = Inhibition of NaV in mouse Neuro2a cells assessed as suppression of ouabain/veratridine-induced reduction in cell viability measured after 20 hrs by WST8 assay

## NC1=N[C@H](O)[C@H]2[C@H]3O[C@]4(O)O[C@@H](C[C@@]2(N1)[C@@H]4O)[C@]3(O)CO
[1]
  EC50: 250 nM

## NC1=N[C@H](O)[C@H]2[C@H]3O[C@]4(O)O[C@@H]([C@@H](O)[C@@]2(N1)[C@@H]4O)[C@]3(O)CO [TETRODOTOXIN]
[2]
  EC50: 1.9 nM
Rana temporaria
  ED50: 4.1 nM

## NC1=N[C@H](O)[C@H]2[C@H]3O[C@]4(O)O[C@@H]([C@@H](O)[C@@]2(N1)[C@@H]4O)[C@@]3(O)CO
[2]
  EC50: 33 nM
Rana temporaria
  ED50: 96 nM

## NC1=N[C@H](O)[C@H]2[C@H]3O[C@]4(O)O[C@@H]([C@H](O)[C@@]2(N1)[C@@H]4O)[C@]3(O)CO
[2]
  EC50: 110 nM
